From PMC6366094, “Suppression of Myeloid Cell Arginase Activity leads to Therapeutic Response in a NSCLC Mouse Model by Activating Anti-Tumor Immunity” (Journal for Immunotherapy of Cancer, 2019)

Experiments:
human ARG1 (arginase 1) = target: T1, human ARG1 (arginase 1) (Homo sapiens, UniProt P05089); test: enzymatic arginase inhibition assay (data not shown); assay type: biochemical
T1 sequence (P05089 1-322): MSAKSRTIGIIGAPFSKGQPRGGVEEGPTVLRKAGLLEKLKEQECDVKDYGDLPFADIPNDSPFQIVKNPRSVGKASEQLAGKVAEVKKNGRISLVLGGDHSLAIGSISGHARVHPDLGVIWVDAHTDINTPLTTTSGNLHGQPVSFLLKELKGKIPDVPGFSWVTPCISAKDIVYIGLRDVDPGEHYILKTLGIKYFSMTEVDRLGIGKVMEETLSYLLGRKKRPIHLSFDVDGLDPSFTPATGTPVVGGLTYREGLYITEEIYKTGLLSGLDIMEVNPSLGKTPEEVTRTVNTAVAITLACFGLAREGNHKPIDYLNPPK

human ARG2 (arginase 2) = target: T2, human ARG2 (arginase 2) (Homo sapiens, UniProt P78540); test: as above; assay type: biochemical
T2 sequence (P78540 23-354): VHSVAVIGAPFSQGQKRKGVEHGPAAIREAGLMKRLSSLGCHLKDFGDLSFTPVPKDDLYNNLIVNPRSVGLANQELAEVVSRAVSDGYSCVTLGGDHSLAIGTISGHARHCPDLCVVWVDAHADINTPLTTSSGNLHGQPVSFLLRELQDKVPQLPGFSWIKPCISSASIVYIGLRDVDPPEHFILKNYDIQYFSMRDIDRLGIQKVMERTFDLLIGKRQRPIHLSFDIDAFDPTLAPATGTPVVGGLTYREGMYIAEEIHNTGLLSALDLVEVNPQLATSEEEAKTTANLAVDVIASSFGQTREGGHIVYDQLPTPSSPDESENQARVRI

In the case of `N[C@](CCCCB(O)O)(CCN1CCCCC1)C(=O)O` [compound 9, (R)-2-amino-6-borono-2-(2-(piperidin-1-yl)ethyl) hexanoic acid], the IC50 (human ARG1 (arginase 1)) is reported as 1100 nM and the IC50 (human ARG2 (arginase 2)) is reported as 2700 nM.
